# Entries after “also recorded” stand apart in the source; their conditions may differ.
# How the values were obtained:
# Format in all cases: in vivo, cassava (Manihot esculenta)
# [1] = test system: shoots of transgenic events expressing high levels of the T102I/P106A (TIPA) enzyme; experiment: In vitro rooting test on glyphosate-containing media; conditions: media containing 0.05 mM glyphosate; compared to events expressing the gene variant at lower levels; p=0.00
# Source text: Gene models are shown in FIG. 2, and indicated as follows: H001, WT EPSPS driven by the TME7 EPSPS promoter; H002, T102I/P106A EPSPS driven by the TME7 EPSPS promoter; H003, WT EPSPS driven by the 2×35s promoter; H004, T102I/P106A EPSPS driven by the 2×35s promoter.
# (§1) Plantlets were regenerated from five independent transformation events with each gene model vector. Apical stem cuttings approximately 1.5 cm in length were excised from in vitro shoot cultures of transgenic plant lines and cultured on Murashige and Skoog basal media supplemented with 0.05 mM glyphosate. A total of five Petri dishes were established per transgenic event with three plantlets cultured in each dish.
# (§2) Plants were monitored for a period of three weeks. The number of roots formed, length of roots, shoot vigor, and overall plant health were recorded at weekly intervals.
# [2] = test system: WT non-transgenic cassava plant (susceptible control); experiment: Greenhouse glyphosate challenge, phenotype; conditions: 50 mg active ingredient per plant, 21 days after application (FIG. 7)
# Method: (§3) Plants transgenic for 2×35S and native EPSPS promoter expression cassettes were established in the greenhouse following procedures described elsewhere (Taylor et al., 2012 Tropical Plant Biology, 5: 127-139; and Chauhan et al., 2015 Plant Cell Tissue and Organ Culture 121: 591-603). Glyphosate 5.4 was prepared in a solution containing Surface surfactant and applied to leaves of 4-5 week old plants. Glyphosate was applied at a rate of 50 mg active ingredient per plant in a dropwise manner to the youngest 1-2 fully expanded leaves. Plants were grown on the greenhouse bench under conditions described elsewhere (Taylor et al., 2012 Tropical Plant Biology, 5: 127-139; and Chauhan et al., 2015 Plant Cell Tissue and Organ Culture 121: 591-603). Three times per week plants were scored visually on a 1-7 scale for damaged caused by the glyphosate application, where 1=no damage and 7=death.
# [3] = test system: cassava plants transgenic for H064 (DFP promoter driving the TIPA EPSPS sequence); experiment: Greenhouse glyphosate challenge, visual damage score; conditions: four independent lines, assay as for FIG. 6 (50 mg active ingredient per plant; 1=no damage, 7=plant death)
# Method: as §3
# (§4) To test the suitability of the two best promoter candidates for driving EPSPS expression, the RB1 and DFP promoters were used to drive expression of TIPA gene models (as shown in FIG. 12) transformed into cassava as described for the other gene models in Example 2. Independent lines were challenged with glyphosate as described for the other gene models in Example 6.
# [4] = test system: cassava plants transgenic for H063 (RB1 promoter driving the TIPA EPSPS sequence); experiment: as above; conditions: two independent lines, assay as for FIG. 6 (50 mg active ingredient per plant; 1=no damage, 7=plant death)
# Method: as §3, §4
# [5] = test system: non-transgenic cassava stem cuttings; experiment: In vitro rooting test on glyphosate-containing media; conditions: glyphosate added to the medium at 0.05 mM
# Method: Experiments were conducted to access the effects of glyphosate on in vitro rooting by culturing non transgenic shoots on media containing different concentrations of glyphosate ranging from 0.001 mM to 1.0 mM.
# as §1, §2
# [6] = test system: cassava plants edited with the H056 vector (double 35s promoter driving the TIPA enzyme); experiment: Greenhouse glyphosate challenge of gene-edited plants; conditions: H056 edited event; 50 mg active ingredient per plant; assay as for FIG. 6; compared with H004 event
# Method: as §3
# Vectors containing gene editing reagents described in Example 8 were introduced into cassava callus via Agrobacterium transformation (for example, SEQ ID NOs: 11-14). The vectors were designed to repair the EPSPS promoter excision event either by HR or NHEJ from a standard T-DNA (H055; SEQ ID NO: 11), by HR only from a standard T-DNA (H056; SEQ ID NO: 12), or by HR only from a geminivirus replicon (H060; SEQ ID NO: 14). […]
# [7] = test system: cassava plants transgenic for H009 (EPSPS promoter driving the GAAT (G101A/A192T) EPSPS sequence); experiment: Greenhouse glyphosate challenge, visual damage score; conditions: 50 mg active ingredient per plant applied dropwise to leaves of 4-5 week old plants, scored three times weekly, 1=no damage, 7=plant death
# Method: as §3
# [8] = test system: cassava plants transgenic for H014 (double 35S promoter driving the TIPI EPSPS sequence); experiment: as above; conditions: 50 mg active ingredient per plant applied dropwise to leaves of 4-5 week old plants, scored three times weekly, 1=no damage, 7=plant death
# Method: as §3
# [9] = test system: cassava plants transgenic for H013 (EPSPS promoter driving the TIPI (T102I/P106I) EPSPS sequence); experiment: as above; conditions: 50 mg active ingredient per plant applied dropwise to leaves of 4-5 week old plants, scored three times weekly, 1=no damage, 7=plant death
# Method: as §3
# [10] = test system: cassava plants transgenic for H010 (double 35S promoter driving the GAAT EPSPS sequence); experiment: as above; conditions: 50 mg active ingredient per plant applied dropwise to leaves of 4-5 week old plants, scored three times weekly, 1=no damage, 7=plant death
# Method: as §3
structure (smiles),measurement,setting,value
O=C(O)CNCP(=O)(O)O [glyphosate],number and length of roots formed,[1],more and longer roots
same,phenotype after herbicide challenge,[2],complete killing
same,"average damage to the shoots, scale of 1-7",[3],around 4
same,"average damage to the shoots, scale of 1-7",[4],3-4
same,effect on in vitro rooting and shoots,[5],Inhibited root formation and shoot death
same,glyphosate tolerance of edited plants (damage over time),[6],equivalent to the best H004 event recovered; also recorded: equivalent to performance of the best H004
same,"average damage to the shoots, scale of 1-7",[7],4-6.5
same,"average damage to the shoots, scale of 1-7",[8],1-3.5
same,"average damage to the shoots, scale of 1-7",[9],4-5.5
same,"average damage to the shoots, scale of 1-7",[10],3-4

# From patent US20190017067A1, “[…] PLANTS HAVING MODIFIED 5-ENOLPYRUVYLSHIKIMATE-3-PHOSPHATE SYNTHASE GENE REGULATION” (Regents of the University of Minnesota, priority 2016, published 2019)
